Measurements from US6372926B1, “17-side chain alkynyl-and 20-oxopregna-derivatives of vitamin D, methods for their production and pharmaceutical compositions thereof” (Research Institute for Medicine and Chemistry, priority 1997, dated 2002).

Experiments:
progesterone receptor = target: T1, progesterone receptor (Homo sapiens, UniProt P06401); details: as reported by DeLuca and coworkers; cited from earlier work
T1 sequence (P06401 1-933): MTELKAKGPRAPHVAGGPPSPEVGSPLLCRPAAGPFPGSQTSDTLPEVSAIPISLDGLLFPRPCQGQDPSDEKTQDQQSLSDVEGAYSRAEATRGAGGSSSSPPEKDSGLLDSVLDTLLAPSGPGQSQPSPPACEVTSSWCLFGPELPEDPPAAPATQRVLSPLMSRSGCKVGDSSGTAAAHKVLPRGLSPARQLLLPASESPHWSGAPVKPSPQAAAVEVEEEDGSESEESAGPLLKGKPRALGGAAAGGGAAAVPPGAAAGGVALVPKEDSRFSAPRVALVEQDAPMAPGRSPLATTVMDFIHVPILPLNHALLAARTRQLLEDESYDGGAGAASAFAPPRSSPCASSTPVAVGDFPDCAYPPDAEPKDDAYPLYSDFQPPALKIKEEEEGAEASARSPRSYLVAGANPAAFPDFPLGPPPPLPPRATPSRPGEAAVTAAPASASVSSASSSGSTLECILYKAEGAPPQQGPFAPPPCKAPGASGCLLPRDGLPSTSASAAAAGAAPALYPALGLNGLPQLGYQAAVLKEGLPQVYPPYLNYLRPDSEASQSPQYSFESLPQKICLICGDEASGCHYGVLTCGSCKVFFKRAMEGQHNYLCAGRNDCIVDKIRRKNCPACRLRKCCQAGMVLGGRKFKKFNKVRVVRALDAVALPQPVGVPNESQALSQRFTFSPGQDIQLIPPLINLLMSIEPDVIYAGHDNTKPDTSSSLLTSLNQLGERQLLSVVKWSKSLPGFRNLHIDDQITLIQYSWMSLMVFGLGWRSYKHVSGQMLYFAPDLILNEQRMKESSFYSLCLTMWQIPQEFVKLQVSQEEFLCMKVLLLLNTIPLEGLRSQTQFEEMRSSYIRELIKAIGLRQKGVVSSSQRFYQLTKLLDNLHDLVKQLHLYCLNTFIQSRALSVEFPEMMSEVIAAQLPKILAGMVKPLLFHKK

progesterone activity = assay: anti-progesterone activity (applicant's finding); details: evidenced by antifertility activity, anti-progesterone assay and inhibition of growth of T47D and MCF-7 cell lines; no data given
[1] = system: human breast cancer cells (T47D); details: Endocrine Society 1994 Abstract No. 1744; cited from earlier work
glutocorticoid receptor = target: T2, glutocorticoid receptor (Homo sapiens, UniProt P04150); details: in contrast to RU 486; literature report; cited from earlier work
T2 sequence (P04150 1-777): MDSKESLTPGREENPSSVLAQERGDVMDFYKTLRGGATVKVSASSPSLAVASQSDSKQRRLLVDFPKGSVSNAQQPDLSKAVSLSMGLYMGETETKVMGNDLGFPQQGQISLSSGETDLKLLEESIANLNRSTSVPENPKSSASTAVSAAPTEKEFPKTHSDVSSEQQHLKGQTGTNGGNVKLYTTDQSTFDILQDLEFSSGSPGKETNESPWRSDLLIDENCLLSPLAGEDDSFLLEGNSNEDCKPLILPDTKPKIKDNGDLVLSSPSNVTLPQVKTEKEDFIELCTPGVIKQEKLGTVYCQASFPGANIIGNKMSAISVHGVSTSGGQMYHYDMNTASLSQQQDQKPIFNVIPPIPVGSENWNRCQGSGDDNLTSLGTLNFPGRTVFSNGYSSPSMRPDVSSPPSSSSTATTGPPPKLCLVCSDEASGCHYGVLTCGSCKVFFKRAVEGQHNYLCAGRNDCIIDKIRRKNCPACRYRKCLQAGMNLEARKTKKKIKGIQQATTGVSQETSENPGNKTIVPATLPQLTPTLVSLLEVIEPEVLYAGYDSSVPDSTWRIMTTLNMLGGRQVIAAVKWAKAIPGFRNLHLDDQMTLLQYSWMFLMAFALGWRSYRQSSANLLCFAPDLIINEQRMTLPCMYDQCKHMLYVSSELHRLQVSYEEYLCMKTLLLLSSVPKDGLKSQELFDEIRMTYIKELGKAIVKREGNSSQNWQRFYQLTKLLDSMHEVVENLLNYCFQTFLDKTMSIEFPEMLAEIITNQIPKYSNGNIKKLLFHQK

| SMILES | ability to bind to the progesterone receptor (progesterone receptor) | antagonism of progesterone activity (progesterone activity) | suppression of in vitro growth of human breast cancer cells (T47D) [1] | binding to the glucocorticoid receptor (glutocorticoid receptor) |
| --- | --- | --- | --- | --- |
| C=C1C(=CC=C2CCCC3(C)C(C(C)=O)CCC23)CC(O)CC1O (stereo not drawn) [1α-Hydroxy-20-oxopregna-calciferol, 1α,3β-Dihydroxy-20-oxo-9,10-secopregna-5(Z),7,10(19)-triene] | not to have such binding effect | anti-progestational activity | – | – |
| C=C1CC[C@H](O)C/C1=C/C=C1\CCC[C@@]2(C)[C@@H](C(C)=O)CC[C@H]12 [20-oxopregnacalciferol] | – | – | suppress in vitro growth | not to bind |
